# Laboratory results: patent US20100303903A1, “METHODS OF ENHANCING SELECTIVE SEROTONIN REUPTAKE INHIBITOR EFFECTS IN MAMMALS” (SHIRE LLC, priority 2009, published 2010)
# Key:
# mouse = assay: Behavioural despair test in the mouse (forced swim; duration of immobility and latency to immobility); type: in vivo, Male Rj: NMRI mice; details: for DURATION OF IMMOBILITY % change / LATENCY % change: (a) compared with vehicle control
# Experimental: Male Rj: NMRI mice (Elevage Janvier, 53940 Le Genest-Saint-Isle, France) having a body weight of between 22 and 29 g were used in the study. The mice were stabilised for 5 days prior to assessment with free access to food and water. […] […] The control vehicle was distilled water. The substances were evaluated in comparison with the control vehicle and were administered dissolved in distilled water.
# The method, which detects antidepressant activity, follows that described by Porsolt et al (Arch. Int. Pharmacodyn., 1977, 229, 327-336). Mice forced to swim in a situation from which they cannot escape rapidly become immobile. Antidepressants decrease the duration of immobility.
# Mice were individually placed in a cylinder (height=24 cm; diameter=13 cm) containing 10 cm water (22° C.) from which they cannot escape. The mice were placed in the water for 6 minutes and the duration of immobility during the last 4 minutes was measured. The latency to the first bout of immobility was also recorded.
# 10 mice were studied per group. The test was performed blind.
# L-lysine-d-amphetamine (Vyvanse) (8, 16 and 32 mg/kg) was administered 90 minutes before the test, alone or in combination and compared with a vehicle control group.
# Imipramine (128 mg/kg p.o.), administered under the same experimental conditions, was used as a reference substance.
# Data were analysed by comparing treated groups with vehicle control using unpaired Student's t tests. In addition, groups treated with combinations of substances were compared with groups administered appropriate substances alone using unpaired Student's t tests.
# The mouse behavioural despair test is based on the observation that mice, when forced to swim in a situation from which there is no escape, after an initial period of vigorous activity will eventually cease to move altogether making only those movements necessary to keep the head above the water. This behavioural immobility is thought to indicate a state of despair in which the mice have learned that escape is impossible and have resigned themselves to the experimental conditions. This immobility is reduced by anti-depression treatments.
# mice = assay: Light-dark box test of anxiety; type: in vivo; details: 16 and 32 mg/kg, alone
# Text: The light/dark test is based on the innate aversion of rodents to brightly/illuminated areas and on the spontaneous exploratory behaviour of rodents in response to mild stress, that is, novel environment and light. The test apparatus consists of a compartment box divided between a dark safe compartment and an illuminated aversive compartment.
# [1] = Table 2, 128 mg/kg p.o. -60 min
# [2] = Table 3, 128 mg/kg p.o. -90 min
smiles,measurement,setting,value
CN(C)CCCN1c2ccccc2CCc2ccccc21 [Imipramine],DURATION OF IMMOBILITY mean ± s.e.m.,mouse; [1],70.4 ± 21.4 s
same,LATENCY mean ± s.e.m.,mouse; [1],243.6 ± 32.7 s
same,DURATION OF IMMOBILITY % change,mouse; [1],−67%
same,LATENCY % change,mouse; [1],+277%
same,DURATION OF IMMOBILITY mean ± s.e.m.,mouse; [2],100.6 ± 23.5 s
same,DURATION OF IMMOBILITY % change,mouse; [2],−48%
"CN[C@H]1CC[C@@H](c2ccc(Cl)c(Cl)c2)c2ccccc21 [Sertraline, sertraline]",DURATION OF IMMOBILITY mean ± s.e.m.,"mouse; Table 3, 16 mg/kg p.o. -90 min",162.7 ± 27.5 s
same,DURATION OF IMMOBILITY % change,"mouse; Table 3, 16 mg/kg p.o. -90 min",−16%
"C[C@@H](Cc1ccccc1)NC(=O)[C@@H](N)CCCCN [Vyvanse, N-[(1S)-1-methyl-2-phenylethyl]-L-lysinamide]",anxiogenic activity,mice,absence of any anxiogenic activity
same,antidepressant-like activity,"mouse; 16 and 32 mg/kg, alone",presence of antidepressant-like activity
same,DURATION OF IMMOBILITY mean ± s.e.m.,"mouse; Table 2, 16 mg/kg p.o. -60 min",173.6 ± 18.8 s
same,LATENCY mean ± s.e.m.,"mouse; Table 2, 16 mg/kg p.o. -60 min",100.0 ± 21.3 s
same,DURATION OF IMMOBILITY % change,"mouse; Table 2, 16 mg/kg p.o. -60 min",−19%
same,LATENCY % change,"mouse; Table 2, 16 mg/kg p.o. -60 min",+55%
same,DURATION OF IMMOBILITY mean ± s.e.m.,"mouse; Table 2, 32 mg/kg p.o. -60 min",160.3 ± 22.6 s
same,LATENCY mean ± s.e.m.,"mouse; Table 2, 32 mg/kg p.o. -60 min",104.3 ± 18.2 s
same,DURATION OF IMMOBILITY % change,"mouse; Table 2, 32 mg/kg p.o. -60 min",−25%
same,LATENCY % change,"mouse; Table 2, 32 mg/kg p.o. -60 min",+61%
same,DURATION OF IMMOBILITY mean ± s.e.m.,"mouse; Table 3, 8 mg/kg p.o. -90 min",208.0 ± 7.3 s
same,DURATION OF IMMOBILITY % change,"mouse; Table 3, 8 mg/kg p.o. -90 min",+7%
same,DURATION OF IMMOBILITY mean ± s.e.m.,"mouse; Table 3, 16 mg/kg p.o. -90 min",176.8 ± 14.8 s
same,DURATION OF IMMOBILITY % change,"mouse; Table 3, 16 mg/kg p.o. -90 min",−9%
same,DURATION OF IMMOBILITY mean ± s.e.m.,"mouse; Table 3, 32 mg/kg p.o. -90 min",123.1 ± 20.8 s
same,DURATION OF IMMOBILITY % change,"mouse; Table 3, 32 mg/kg p.o. -90 min",−37%
